Source: US20050222168A1, “Beta-carboline derived guanidine alkaloids, tiruchenduramine” (Council of Scientific and Industrial Research, priority 2004, published 2005)

Test system: α-glucosidase
Experiment: in-vitro assay for anti-diabetic activity (α-glucosidase inhibition)
Type: biochemical
Conditions: amount printed without volume or percent inhibition
From the text: The structure of compound 1 was established by the study of ^1H-^1H—COSY, HMQC, HMBC and NOESY spectral data (Table 1) as Formula 1.

amount at which it inhibits α-glucosidase: 788 µg
SMILES: N=C1NCC(CCNC(=O)c2cc3c(cn2)[nH]c2ccccc23)N1 (stereo not shown) [Tiruchenduramine, tiruchenduramine]
